Values of other authors as cited in patent US20210115268A1, “FUNCTIONALIZED QUATERNARY AMMONIUM HALIDES AND USE THEREOF” (Agency for Science, Technology and Research, priority 2015, published 2021).

Conditions: glass, cotton, polyester fibers or polyurethane foams treated with the silane; after repeated washings

CCCCCCCCCCCCCCCCCC[N+](C)(C)CCC[Si](OC)(OC)OC.[Cl-] [DC 5700, (MeO)3Si(CH2)3N^+Me2C18H37Cl]
algicidal and bactericidal properties, leaching: showed algicidal and bactericidal properties that are maintained after repeated washings and no apparent leaching was observed
